Source: patent EP1816136A1, “GPR7-SELECTIVE LIGAND AND USE THEREOF” (BANYU PHARMACEUTICAL CO., LTD., priority 2004, dated 2006)
Non-standard residues stand in square brackets, D forms with d. Residues, ends and D or L forms follow the SMILES beside them. Ava = NCCCCC(=O)O

Legend:
GPR8 [1] = biological target: T1, GPR8 (Homo sapiens, UniProt P48146); assay: Measurement of activation capacity on GPR8 (CRE-BLA beta-lactamase reporter assay); assay type: cell-based; conditions: Table 1; HEK293/CRE-BLA cells expressing GPR8; forskolin 1 µM; 3 hours at 37°C; read-out: GPR8 (nM) EC 50
T1 construct: expressed in transfected cells; host or cells: HEK293/CRE-BLA cells (AURORA), expression vector pIRES-hygro (Clontech)
Description: (§1) A cDNA sequence coding for human GPR7 or GPR8 [see Genomics, vol. 28, p. 84 (1995)] was amplified by the PCR method, and cloned using the expression vector pIRES-hygro (Clontech). The resulting expression vector was transfected into HEK293/CRE-BLA cells (AURORA) using the cationic lipid method [see Proceedings of the National Academy of Sciences of the United States of America, vol. 84, p. 7413 (1987)] to obtain GPR7 or GPR8 expression cells.
(§2) In accordance with the method of Zlakarmik (see Science, 1998, vol. 279, p. 84), the activity of various synthetic peptides on GPR7 or GPR8 was measured. HEK293/CRE-BLA cells which expressed GPR7 or GPR8 (prepared in (2) of Test Example 1) were washed twice with PBS(-) buffer solution (GIBCO-BRL), and then Cell-dissociation buffer (GIBCO-BRL) was added. The system was kept at 37°C for 3 minutes in a CO2 incubator, and a culture flask was tapped to liberate the cells from the flask. After the cells were harvested by centrifugation, the cells were suspended in an Opti-MEM culture medium (GIBCO-BRL) containing 0.1 % BSA (Sigma) to count the cells and prepare a cell suspension containing 8×10^5 cells/mL. To 2 µL of a DMSO solution containing each test compound with a concentration of 50 times an end concentration, 50 µL of the 0.1% BSA-containing Opti-MEM medium incorporating forskolin (Sigma) so as to have an end concentration of 1 µM was added to form a reaction solution. To this reaction solution, 50 µL of the above cell suspension was added to initiate the reaction, and the system was incubated for 3 hours at 37°C in a CO2 incubator.
(§3) Then, using a BLA assay kit (AURORA), a coloring matter-introduced buffer solution incorporating 12 µL of Solution A [1 mM CCF2-AM/anhydrous DMSO solution], 120 µL of Solution B [100 mg/mL Pluronic 127, 0.1% acetic acid/DMSO solution], and 2 mL of Solution C [24% (w/w) PEG-400, 18% TR40/H2O] was prepared. This coloring matter-introduced buffer solution (20 µL) was added to the above-mentioned cell reaction mixture to introduce a β-lactamase substrate (CCF2-AM) into the cells. After the system was allowed to stand for 1 hour at room temperature, the fluorescence intensities of the sample at an excitation wavelength of 409 nm, at a fluorescence wavelength of 460 nm (a β-lactamase hydrolyzate of CCF), and at 530 nm (CCF) were measured. With β-lactamase activity (fluorescence intensity at 460 nm/fluorescence intensity at 530 nm) as an indicator, the activity of each of various peptides on GPR7 or GPR8 was measured, and the 50% effective concentration (EC50) of the test compound was calculated.

GPR7 [2] = biological target: T2, GPR7 (Homo sapiens, UniProt P48145); assay: Measurement of activation capacity on GPR7 (CRE-BLA beta-lactamase reporter assay); assay type: cell-based; conditions: Table 1; HEK293/CRE-BLA cells expressing GPR7; forskolin 1 µM; 3 hours at 37°C
T2 construct: expressed in transfected cells; host or cells: HEK293/CRE-BLA cells (AURORA), expression vector pIRES-hygro (Clontech)
T2 sequence (P48145 1-328): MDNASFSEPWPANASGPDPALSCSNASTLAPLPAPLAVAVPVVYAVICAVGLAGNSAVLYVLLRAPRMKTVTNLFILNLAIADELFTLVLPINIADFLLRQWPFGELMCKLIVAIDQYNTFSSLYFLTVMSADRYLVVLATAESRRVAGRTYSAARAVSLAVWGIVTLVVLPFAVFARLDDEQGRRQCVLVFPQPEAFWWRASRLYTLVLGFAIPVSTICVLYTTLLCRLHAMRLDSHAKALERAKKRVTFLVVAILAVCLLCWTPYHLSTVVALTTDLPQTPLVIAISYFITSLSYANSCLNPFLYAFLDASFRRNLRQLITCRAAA
Description: as §1, §2, §3

GPR7 [3] = biological target: T2, GPR7; assay: Binding inhibition test with [125I]-[Phe2]-hNPW(1-23), GPR7 membrane preparation; conditions: Table 1, membrane preparation of HEK293/CRE-BLA cells expressing GPR7, 1 hour at room temperature
Procedure: (§4) One nmol of [Phe2]-hNPW(1-23) (prepared in Synthesis Example 19) was dissolved in 5 µL of anhydrous DMSO, and the solution was mixed with 0.1M nickel chloride. Then, the mixture was mixed with 10 µL of a 0.00 1 % aqueous solution of hydrogen peroxide, 10 µL of an enzyme solution (lactoperoxidase (Sigma) adjusted to 10 µg/mL with a 0.1M HEPES buffer solution), and 37 Mbq/10 µL of Iodine-125 (Amersham), whereafter the resulting mixture was reacted for 60 minutes at room temperature. The reaction was terminated with the addition of 10 µL of 1% sodium azide, and then a radiolabeled peptide fraction was collected by a PD-10 gel filtration column (Amersham) to obtain [^125I]-[Phe2]-hNPW(1-23).
as §1
(§5) A membrane preparation prepared from the cells expressing GPR7 or GPR8 was incubated for 1 hour at room temperature in an assay buffer solution (25 mM Tris buffer solution, 150 mM NaCl, pH 7.4) together with a test compound and 28,000 cpm of [^125I]-[Phe2]-hNPW(1-23). Then, the system was filtered through the glass filter GF/C. After washing with 25 mM Tris buffer solution (pH 7.4), radioactivity on the glass filter was measured. Nonspecific binding was measured in the presence of 1 µM hNPW (prepared in Synthesis Example 1), and the 50% inhibition concentration (IC50 value) of the test compound against [Phe2]-hNPW(1-23) specific binding was calculated [see Molecular Pharmacology, vol. 55, 1101 (1999)].

GPR8 [4] = biological target: T1, GPR8; assay: Binding inhibition test with [125I]-[Phe2]-hNPW(1-23), GPR8 membrane preparation; conditions: Table 1, membrane preparation of HEK293/CRE-BLA cells expressing GPR8, 1 hour at room temperature
Procedure: as §4, §1, §5

T1 sequence (P48146 whole entry): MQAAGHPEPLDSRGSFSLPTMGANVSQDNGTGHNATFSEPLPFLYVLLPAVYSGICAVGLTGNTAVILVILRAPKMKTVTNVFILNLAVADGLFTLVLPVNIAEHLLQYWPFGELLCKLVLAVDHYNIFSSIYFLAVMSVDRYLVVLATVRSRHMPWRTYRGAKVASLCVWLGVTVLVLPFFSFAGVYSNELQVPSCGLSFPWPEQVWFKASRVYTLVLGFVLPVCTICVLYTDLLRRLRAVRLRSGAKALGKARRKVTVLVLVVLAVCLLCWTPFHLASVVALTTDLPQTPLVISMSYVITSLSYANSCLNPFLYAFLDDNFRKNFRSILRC

EC50 (GPR8 [1]) | EC50 (GPR7 [2]) | IC50 (GPR7 [3]) | IC50 (GPR8 [4]) | SMILES
0.86 nM | 0.24 nM | 0.23 nM | 24 nM | CC(C)C[C@H](NC(=O)CNC(=O)[C@H](CO)NC(=O)[C@H](CC(C)C)NC(=O)[C@H](CC(C)C)NC(=O)CNC(=O)[C@H](C)NC(=O)[C@H](C)NC(=O)[C@H](CCCNC(=N)N)NC(=O)CNC(=O)[C@@H](NC(=O)[C@H](CO)NC(=O)[C@H](Cc1ccc(O)cc1)NC(=O)[C@H](CO)NC(=O)[C@H](CO)NC(=O)[C@H](Cc1cnc[nH]1)NC(=O)CNC(=O)[C@H](C)NC(=O)[C@H](C)NC(=O)[C@@H]1CCCN1C(=O)[C@H](CCCCN)NC(=O)[C@H](Cc1ccc(O)cc1)NC(=O)[C@@H](N)Cc1c[nH]c2ccccc12)C(C)C)C(N)=O [compound 4]
94 nM | 2.2 nM | 0.47 nM | 300 nM | CC(C)C[C@H](NC(=O)CNC(=O)[C@H](CO)NC(=O)[C@H](CC(C)C)NC(=O)[C@H](CC(C)C)NC(=O)CNC(=O)[C@H](C)NC(=O)[C@H](C)NC(=O)[C@H](CCCNC(=N)N)NC(=O)CNC(=O)CCCCNC(=O)CCCCNC(=O)[C@H](CCCCN)NC(=O)[C@H](Cc1ccc(O)cc1)NC(=O)[C@@H](N)Cc1c[nH]c2ccccc12)C(N)=O [compound 6] (H-WYK[Ava][Ava]GRAAGLLSGL-NH2)
51 nM | 1.2 nM | 1.1 nM | 360 nM | CC(C)C[C@H](NC(=O)CNC(=O)[C@H](CO)NC(=O)[C@H](CC(C)C)NC(=O)[C@H](CC(C)C)NC(=O)CNC(=O)[C@H](C)NC(=O)[C@H](C)NC(=O)[C@H](CCCNC(=N)N)NC(=O)CNC(=O)CCCCNC(=O)CCCCNC(=O)CCCCNC(=O)CCCCNC(=O)[C@H](CCCCN)NC(=O)[C@H](Cc1ccc(O)cc1)NC(=O)[C@@H](N)Cc1c[nH]c2ccccc12)C(N)=O [compound 8] (H-WYK[Ava][Ava][Ava][Ava]GRAAGLLSGL-NH2)
280 nM | 1.7 nM | 0.55 nM | 310 nM | CC(C)C[C@H](NC(=O)CNC(=O)[C@H](CO)NC(=O)[C@H](CC(C)C)NC(=O)[C@H](CC(C)C)NC(=O)CNC(=O)[C@H](C)NC(=O)[C@H](C)NC(=O)[C@H](CCCNC(=N)N)NC(=O)CNC(=O)CCCCNC(=O)[C@H](CCCCN)NC(=O)[C@H](Cc1ccc(O)cc1)NC(=O)[C@@H](N)Cc1c[nH]c2ccccc12)C(N)=O [compound 5] (H-WYK[Ava]GRAAGLLSGL-NH2)
